Laboratory results from PubChem BioAssay (NCI).
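All cell lines were grown in 96-well plates and treated with compound for 48 hours. At the GI50, growth is halved. At the TGI there is no net growth.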

Columns and labels:
Assay in all cases: growth of human tumour cells (NCI), 48 h
786-0 renal = test system: 786-0 renal
A498 renal = test system: A498 renal
A549 NSCLC = test system: A549 NSCLC
ACHN renal = test system: ACHN renal
BT-549 breast = test system: BT-549 breast
CAKI-1 renal = test system: CAKI-1 renal
CCRF-CEM leukemia = test system: CCRF-CEM leukemia
COLO 205 colon = test system: COLO 205 colon
DU-145 prostate = test system: DU-145 prostate
EKVX NSCLC = test system: EKVX NSCLC
HCC-2998 colon = test system: HCC-2998 colon
HCT-116 colon = test system: HCT-116 colon
HCT-15 colon = test system: HCT-15 colon
HL-60(TB) leukemia = test system: HL-60(TB) leukemia
HOP-62 NSCLC = test system: HOP-62 NSCLC
HOP-92 NSCLC = test system: HOP-92 NSCLC
HS 578T breast = test system: HS 578T breast
HT29 colon = test system: HT29 colon
IGROV1 ovarian = test system: IGROV1 ovarian
K-562 leukemia = test system: K-562 leukemia
KM12 colon = test system: KM12 colon
LOX IMVI melanoma = test system: LOX IMVI melanoma
M14 melanoma = test system: M14 melanoma
MALME-3M melanoma = test system: MALME-3M melanoma
MCF7 breast = test system: MCF7 breast
MDA-MB-231 breast = test system: MDA-MB-231 breast
MDA-MB-435 = test system: MDA-MB-435
MOLT-4 leukemia = test system: MOLT-4 leukemia
NCI-H226 lung = test system: NCI-H226 lung
NCI-H23 lung = test system: NCI-H23 lung
NCI-H460 lung = test system: NCI-H460 lung
NCI-H522 lung = test system: NCI-H522 lung
NCI/ADR-RES ovarian = test system: NCI/ADR-RES ovarian
OVCAR-3 ovarian = test system: OVCAR-3 ovarian
OVCAR-4 ovarian = test system: OVCAR-4 ovarian
OVCAR-5 ovarian = test system: OVCAR-5 ovarian
OVCAR-8 ovarian = test system: OVCAR-8 ovarian
PC-3 prostate = test system: PC-3 prostate
RPMI-8226 leukemia = test system: RPMI-8226 leukemia
RXF 393 renal = test system: RXF 393 renal
SF-268 CNS = test system: SF-268 CNS
SF-295 CNS = test system: SF-295 CNS
SF-539 CNS = test system: SF-539 CNS
SK-MEL-2 melanoma = test system: SK-MEL-2 melanoma
SK-MEL-28 melanoma = test system: SK-MEL-28 melanoma
SK-MEL-5 melanoma = test system: SK-MEL-5 melanoma
SK-OV-3 ovarian = test system: SK-OV-3 ovarian
SN12C renal = test system: SN12C renal
SNB-19 CNS = test system: SNB-19 CNS
SNB-75 CNS = test system: SNB-75 CNS
SR leukemia = test system: SR leukemia
SW-620 colon = test system: SW-620 colon
T-47D breast = test system: T-47D breast
TK-10 renal = test system: TK-10 renal
U251 CNS = test system: U251 CNS
UACC-257 melanoma = test system: UACC-257 melanoma
UACC-62 melanoma = test system: UACC-62 melanoma
UO-31 renal = test system: UO-31 renal

Work on CCN(CC)CCOc1nc2ccc(OC)cc2c2c1-c1ccc(OC)cc1C2=O yielded a GI50 (786-0 renal) of 1.39 µM, a TGI (786-0 renal) of 3.11 µM and a GI50 (A498 renal) of 0.802 µM. It also gave a TGI (A498 renal) of 2.17 µM, a GI50 (A549 NSCLC) of 0.387 µM and a TGI (A549 NSCLC) of 1.59 µM. It also gave a GI50 (ACHN renal) of 0.476 µM, a TGI (ACHN renal) of 1.79 µM and a GI50 (BT-549 breast) of 5.94 µM. It also gave a TGI (BT-549 breast) of 18 µM, a GI50 (CAKI-1 renal) of 1.15 µM and a TGI (CAKI-1 renal) of 2.88 µM. The GI50 (CCRF-CEM leukemia) was 0.299 µM, the TGI (CCRF-CEM leukemia) was 3.26 µM and the GI50 (COLO 205 colon) was 0.546 µM. It also gave a TGI (COLO 205 colon) of 1.93 µM, a GI50 (DU-145 prostate) of 0.626 µM and a TGI (DU-145 prostate) of 1.88 µM. It also gave a GI50 (EKVX NSCLC) of 0.97 µM, a TGI (EKVX NSCLC) of 2.81 µM and a GI50 (HCC-2998 colon) of 1.31 µM. It also gave a TGI (HCC-2998 colon) of 6.68 µM, a GI50 (HCT-116 colon) of 0.368 µM and a TGI (HCT-116 colon) of 1.64 µM. The GI50 (HCT-15 colon) was 0.584 µM, the TGI (HCT-15 colon) was 2.27 µM and the GI50 (HL-60(TB) leukemia) was 1.06 µM. For the same compound, the TGI (HL-60(TB) leukemia) was 3.37 µM, the GI50 (HOP-62 NSCLC) was 1.33 µM and the TGI (HOP-62 NSCLC) was 6.19 µM. It also gave a GI50 (HOP-92 NSCLC) of 0.786 µM, a TGI (HOP-92 NSCLC) of 5.36 µM and a GI50 (HS 578T breast) of 1.48 µM. For the same compound, the TGI (HS 578T breast) was 6.93 µM, the GI50 (HT29 colon) was 0.545 µM and the TGI (HT29 colon) was 1.86 µM. It also gave a GI50 (IGROV1 ovarian) of 0.417 µM, a TGI (IGROV1 ovarian) of 1.89 µM and a GI50 (K-562 leukemia) of 0.502 µM. For the same compound, the TGI (K-562 leukemia) was 2.54 µM, the GI50 (KM12 colon) was 0.519 µM and the TGI (KM12 colon) was 1.77 µM. The GI50 (LOX IMVI melanoma) was 0.513 µM, the TGI (LOX IMVI melanoma) was 1.88 µM and the GI50 (M14 melanoma) was 1.42 µM. It also gave a TGI (M14 melanoma) of 3.1 µM, a GI50 (MALME-3M melanoma) of 1.68 µM and a TGI (MALME-3M melanoma) of 3.22 µM. The GI50 (MCF7 breast) was 0.367 µM, the TGI (MCF7 breast) was 1.53 µM and the GI50 (MDA-MB-231 breast) was 1.54 µM. The TGI (MDA-MB-231 breast) was 4.1 µM, the GI50 (MDA-MB-435) was 0.69 µM and the TGI (MDA-MB-435) was 2.09 µM. It also gave a GI50 (MOLT-4 leukemia) of 0.283 µM, a TGI (MOLT-4 leukemia) of 1.85 µM and a GI50 (NCI-H226 lung) of 0.87 µM. For the same compound, the TGI (NCI-H226 lung) was 3.06 µM, the GI50 (NCI-H23 lung) was 1.25 µM and the TGI (NCI-H23 lung) was 3.23 µM. For the same compound, the GI50 (NCI-H460 lung) was 0.371 µM, the TGI (NCI-H460 lung) was 1.43 µM and the GI50 (NCI-H522 lung) was 0.394 µM. For the same compound, the TGI (NCI-H522 lung) was 1.81 µM, the GI50 (NCI/ADR-RES ovarian) was 0.848 µM and the TGI (NCI/ADR-RES ovarian) was 2.85 µM. The GI50 (OVCAR-3 ovarian) was 0.872 µM, the TGI (OVCAR-3 ovarian) was 2.15 µM and the GI50 (OVCAR-4 ovarian) was 1.02 µM. For the same compound, the TGI (OVCAR-4 ovarian) was 3.17 µM, the GI50 (OVCAR-5 ovarian) was 1.87 µM and the TGI (OVCAR-5 ovarian) was 7.2 µM. The GI50 (OVCAR-8 ovarian) was 0.526 µM, the TGI (OVCAR-8 ovarian) was 2.26 µM and the GI50 (PC-3 prostate) was 1.3 µM. For the same compound, the TGI (PC-3 prostate) was 2.91 µM, the GI50 (RPMI-8226 leukemia) was 0.601 µM and the TGI (RPMI-8226 leukemia) was 2.24 µM. For the same compound, the GI50 (RXF 393 renal) was 1.21 µM, the TGI (RXF 393 renal) was 2.55 µM and the GI50 (SF-268 CNS) was 0.595 µM. The TGI (SF-268 CNS) was 2.02 µM, the GI50 (SF-295 CNS) was 0.519 µM and the TGI (SF-295 CNS) was 1.74 µM. For the same compound, the GI50 (SF-539 CNS) was 1.24 µM, the TGI (SF-539 CNS) was 2.95 µM and the GI50 (SK-MEL-2 melanoma) was 2.24 µM. For the same compound, the TGI (SK-MEL-2 melanoma) was 4.05 µM, the GI50 (SK-MEL-28 melanoma) was 1.81 µM and the TGI (SK-MEL-28 melanoma) was 3.24 µM. For the same compound, the GI50 (SK-MEL-5 melanoma) was 1.57 µM, the TGI (SK-MEL-5 melanoma) was 2.94 µM and the GI50 (SK-OV-3 ovarian) was 2.88 µM. For the same compound, the TGI (SK-OV-3 ovarian) was 14.8 µM, the GI50 (SN12C renal) was 0.531 µM and the TGI (SN12C renal) was 2.06 µM. The GI50 (SNB-19 CNS) was 0.922 µM, the TGI (SNB-19 CNS) was 3.19 µM and the GI50 (SNB-75 CNS) was 1.36 µM. The TGI (SNB-75 CNS) was 5.4 µM, the GI50 (SR leukemia) was 0.344 µM and the TGI (SR leukemia) was 1.69 µM. For the same compound, the GI50 (SW-620 colon) was 0.253 µM, the TGI (SW-620 colon) was 1.61 µM and the GI50 (T-47D breast) was 11 µM. For the same compound, the TGI (T-47D breast) was 26.3 µM, the GI50 (TK-10 renal) was 1.38 µM and the TGI (TK-10 renal) was 2.95 µM. The GI50 (U251 CNS) was 0.454 µM, the TGI (U251 CNS) was 1.72 µM and the GI50 (UACC-257 melanoma) was 1.4 µM. The TGI (UACC-257 melanoma) was 3.12 µM, the GI50 (UACC-62 melanoma) was 2.76 µM and the TGI (UACC-62 melanoma) was 7.65 µM. For the same compound, the GI50 (UO-31 renal) was 0.361 µM and the TGI (UO-31 renal) was 1.85 µM.
